# Laboratory results taken from publication PMC5218480 (PLoS ONE, 2017).
# Tested on: MV-4-11 cells
# Assay: Gene expression microarray analysis (Affymetrix PrimeView) and GSEA
# Assay type: cell-based, human
# Parameters: RFU PODN (11730768_x_at) / Fold change /veh PODN (11730768_x_at) / RFU LINC00158 (11744669_a_at) / Fold change /veh LINC00158 (11744669_a_at) / RFU DUSP10 (11751237_a_at) / Fold change /veh DUSP10 (11751237_a_at) / RFU ID3 (11757404_x_at) / Fold change /veh ID3 (11757404_x_at) / RFU PLEKHG5 (11737974_s_at) / Fold change /veh PLEKHG5 (11737974_s_at) / RFU LRRC4B (11730491_at) / Fold change /veh LRRC4B (11730491_at) / RFU GIMAP4 (11747438_a_at) / Fold change /veh GIMAP4 (11747438_a_at) / RFU KRT8 (11758183_x_at) / Fold change /veh KRT8 (11758183_x_at) / RFU CNN1 (11734310_a_at) / Fold change /veh CNN1 (11734310_a_at) / RFU VPS37D (11726825_at) / Fold change /veh VPS37D (11726825_at) / RFU C10orf10 (11716522_x_at) / Fold change /veh C10orf10 (11716522_x_at) / RFU KIR2DL2 /// KIR2DL4 /// KIR2DL5A /// KIR2DL5B /// KIR2DS1 /// KIR2DS2 /// KIR2DS3 /// KIR2DS4 /// KIR3DL3 /// KIR3DL3 /// KIR3DS1 (11738374_at) / Fold change /veh KIR2DL2 /// KIR2DL4 /// KIR2DL5A /// KIR2DL5B /// KIR2DS1 /// KIR2DS2 /// KIR2DS3 /// KIR2DS4 /// KIR3DL3 /// KIR3DL3 /// KIR3DS1 (11738374_at) / RFU C1QL1 (11718748_at) / Fold change /veh C1QL1 (11718748_at) / RFU TMPRSS4 (11747572_a_at) / Fold change /veh TMPRSS4 (11747572_a_at) / RFU HAMP (11756126_x_at) / Fold change /veh HAMP (11756126_x_at) / RFU RNFT2 (11725882_a_at) / Fold change /veh RNFT2 (11725882_a_at) / RFU NR4A2 (11747474_a_at) / Fold change /veh NR4A2 (11747474_a_at) / RFU ABCC12 (11746883_a_at) / Fold change /veh ABCC12 (11746883_a_at) / RFU TMEM136 (11760407_x_at) / Fold change /veh TMEM136 (11760407_x_at) / RFU CLDN22 /// WWC2 (11732394_at) / Fold change /veh CLDN22 /// WWC2 (11732394_at) / RFU HLA-DPB1 (11760878_x_at) / Fold change /veh HLA-DPB1 (11760878_x_at) / RFU SPINT1 (11716480_a_at) / Fold change /veh SPINT1 (11716480_a_at) / RFU GAP43 (11754022_s_at) / Fold change /veh GAP43 (11754022_s_at) / RFU A4GNT (11735810_at) / Fold change /veh A4GNT (11735810_at) / RFU PRB3 (11715151_x_at) / Fold change /veh PRB3 (11715151_x_at) / RFU TUBB4B (11761932_at) / Fold change /veh TUBB4B (11761932_at) / RFU CAPN14 (11732068_a_at) / Fold change /veh CAPN14 (11732068_a_at) / RFU TMCC2 (11721928_a_at) / Fold change /veh TMCC2 (11721928_a_at) / RFU IRGQ (11745062_a_at) / Fold change /veh IRGQ (11745062_a_at) / RFU FAM174B (11720279_a_at) / Fold change /veh FAM174B (11720279_a_at) / RFU TMPRSS4 (11748680_a_at) / Fold change /veh TMPRSS4 (11748680_a_at) / RFU FAM212B (11763350_a_at) / Fold change /veh FAM212B (11763350_a_at) / RFU PLEKHG5 (11743358_a_at) / Fold change /veh PLEKHG5 (11743358_a_at) / RFU ZSCAN30 (11745921_a_at) / Fold change /veh ZSCAN30 (11745921_a_at) / RFU CMKLR1 (11741424_a_at) / Fold change /veh CMKLR1 (11741424_a_at) / RFU LOC101060620 /// MAPK8IP1 (11723275_at) / Fold change /veh LOC101060620 /// MAPK8IP1 (11723275_at) / RFU SPTSSB (11747773_x_at) / Fold change /veh SPTSSB (11747773_x_at) / RFU PRSS12 (11739890_at) / Fold change /veh PRSS12 (11739890_at) / RFU BIN1 (11741810_x_at) / Fold change /veh BIN1 (11741810_x_at) / RFU WNT11 (11732464_a_at) / Fold change /veh WNT11 (11732464_a_at) / RFU C10orf10 (11716521_a_at) / Fold change /veh C10orf10 (11716521_a_at) / RFU C5orf56 (11738089_at) / Fold change /veh C5orf56 (11738089_at) / RFU CYB561 (11721691_x_at) / Fold change /veh CYB561 (11721691_x_at) / RFU ANKRD19P (11752326_a_at) / Fold change /veh ANKRD19P (11752326_a_at) / RFU OR2T12 /// OR2T33 /// OR2T8 (11738714_s_at) / Fold change /veh OR2T12 /// OR2T33 /// OR2T8 (11738714_s_at) / RFU VCAN (11748164_a_at) / Fold change /veh VCAN (11748164_a_at) / RFU JSRP1 (11732532_at) / Fold change /veh JSRP1 (11732532_at) / RFU KRTAP10-11 (11738290_x_at) / Fold change /veh KRTAP10-11 (11738290_x_at) / RFU MYO3A (11730013_a_at) / Fold change /veh MYO3A (11730013_a_at) / RFU EBF3 (11725865_a_at) / Fold change /veh EBF3 (11725865_a_at) / RFU CAMK2N1 (11719241_x_at) / Fold change /veh CAMK2N1 (11719241_x_at) / RFU C5orf56 (11738088_a_at) / Fold change /veh C5orf56 (11738088_a_at) / RFU OLFML3 (11715873_a_at) / Fold change /veh OLFML3 (11715873_a_at) / RFU LOC100653217 /// NTM (11731650_a_at) / Fold change /veh LOC100653217 /// NTM (11731650_a_at) / RFU MAPK11 (11762145_a_at) / Fold change /veh MAPK11 (11762145_a_at) / RFU FIZ1 (11724087_x_at) / Fold change /veh FIZ1 (11724087_x_at) / RFU OASL (11726364_x_at) / Fold change /veh OASL (11726364_x_at) / RFU SOX15 (11748057_x_at) / Fold change /veh SOX15 (11748057_x_at) / RFU CD79A (11719716_a_at) / Fold change /veh CD79A (11719716_a_at) / RFU HIST1H1D (11736915_at) / Fold change /veh HIST1H1D (11736915_at) / RFU CASKIN2 (11723855_a_at) / Fold change /veh CASKIN2 (11723855_a_at) / RFU LOC730098 (11760151_x_at) / Fold change /veh LOC730098 (11760151_x_at) / RFU OR4N2 (11742367_at) / Fold change /veh OR4N2 (11742367_at) / RFU PRRT2 (11749266_a_at) / Fold change /veh PRRT2 (11749266_a_at) / RFU SNX32 (11753110_a_at) / Fold change /veh SNX32 (11753110_a_at) / RFU CDHR5 (11726645_a_at) / Fold change /veh CDHR5 (11726645_a_at) / RFU RCAN1 (11760418_a_at) / Fold change /veh RCAN1 (11760418_a_at) / RFU FAM167A (11723789_a_at) / Fold change /veh FAM167A (11723789_a_at) / RFU FAM26E (11764081_at) / Fold change /veh FAM26E (11764081_at) / RFU ISYNA1 (11749810_s_at) / Fold change /veh ISYNA1 (11749810_s_at) / RFU ACY1 (11761880_at) / Fold change /veh ACY1 (11761880_at) / RFU 11764098_at / Fold change /veh 11764098_at / RFU SAMD14 (11745864_x_at) / Fold change /veh SAMD14 (11745864_x_at) / RFU NPB (11741838_a_at) / Fold change /veh NPB (11741838_a_at) / RFU TMPRSS6 (11731388_a_at) / Fold change /veh TMPRSS6 (11731388_a_at) / RFU KRTAP10-2 (11738614_at) / Fold change /veh KRTAP10-2 (11738614_at) / RFU ARHGAP8 /// PRR5-ARHGAP8 (11727945_x_at) / Fold change /veh ARHGAP8 /// PRR5-ARHGAP8 (11727945_x_at) / RFU KRTAP5-7 /// NADSYN1 (11734609_at) / Fold change /veh KRTAP5-7 /// NADSYN1 (11734609_at) / RFU RASL12 (11751679_a_at) / Fold change /veh RASL12 (11751679_a_at) / RFU CDKN2B (11736163_a_at) / Fold change /veh CDKN2B (11736163_a_at) / RFU PRF1 (11729649_at) / Fold change /veh PRF1 (11729649_at) / RFU, ZNF638 /// ZNF638-IT1 / Fold change vs veh, ZNF638 /// ZNF638-IT1 / RFU, PANK3 / Fold change vs veh, PANK3 / RFU, SH3YL1 / Fold change vs veh, SH3YL1 / RFU, ZEB2 / Fold change vs veh, ZEB2 / RFU, NRIP1 / Fold change vs veh, NRIP1 / RFU, PTTG1IP / Fold change vs veh, PTTG1IP / RFU, CAPN2 / Fold change vs veh, CAPN2 / RFU, MED14 / Fold change vs veh, MED14 / RFU, SNORA58 / Fold change vs veh, SNORA58 / RFU, C1orf63 / Fold change vs veh, C1orf63 / RFU, LRRFIP1 / Fold change vs veh, LRRFIP1 / RFU, NDUFAF7 / Fold change vs veh, NDUFAF7 / RFU, SLC12A2 / Fold change vs veh, SLC12A2 / RFU, IBTK / Fold change vs veh, IBTK / RFU, ESF1 / Fold change vs veh, ESF1 / Fold change vs veh, TMEM50B / RFU, TAOK1 / Fold change vs veh, TAOK1 / RFU, ACBD3 / Fold change vs veh, ACBD3 / RFU, TMA16 / Fold change vs veh, TMA16 / RFU, RWDD3 / Fold change vs veh, RWDD3 / RFU, BCAT1 / Fold change vs veh, BCAT1 / RFU, EDEM3 / Fold change vs veh, EDEM3 / RFU, TMEM33 / Fold change vs veh, TMEM33 / RFU, WDR75 / Fold change vs veh, WDR75 / RFU, AHCTF1 / Fold change vs veh, AHCTF1 / RFU, TFRC / Fold change vs veh, TFRC / RFU, ZDHHC17 / Fold change vs veh, ZDHHC17 / RFU, NOM1 / Fold change vs veh, NOM1 / RFU, ARL8B / Fold change vs veh, ARL8B / RFU, ZBTB11 / Fold change vs veh, ZBTB11 / RFU, TAMM41 / Fold change vs veh, TAMM41 / RFU, KIAA1704 /// LOC100996395 / Fold change vs veh, KIAA1704 /// LOC100996395 / RFU, ING1 / Fold change vs veh, ING1 / RFU, TRMT61B / Fold change vs veh, TRMT61B / RFU, FUBP3 / Fold change vs veh, FUBP3 / RFU, TP53 / Fold change vs veh, TP53 / RFU, TNKS2 / Fold change vs veh, TNKS2 / RFU, ZFP14 / Fold change vs veh, ZFP14 / RFU, ACTR2 / Fold change vs veh, ACTR2 / RFU, PPP3R1 / Fold change vs veh, PPP3R1 / RFU, PIK3R1 / Fold change vs veh, PIK3R1 / RFU, HNRNPA1 / Fold change vs veh, HNRNPA1 / RFU, RNF170 / Fold change vs veh, RNF170 / RFU, ZNF28 / Fold change vs veh, ZNF28 / RFU, RNGTT / Fold change vs veh, RNGTT / RFU, OGT / Fold change vs veh, OGT / RFU, BRD1 / Fold change vs veh, BRD1 / RFU, MARS / Fold change vs veh, MARS / RFU, ZNF655 / Fold change vs veh, ZNF655 / RFU, FAHD1 / Fold change vs veh, FAHD1 / RFU, BDP1 / Fold change vs veh, BDP1 / RFU, LRRCC1 / Fold change vs veh, LRRCC1 / RFU, ARID1A / Fold change vs veh, ARID1A / RFU, ZNF146 / Fold change vs veh, ZNF146 / RFU, ZNF330 / Fold change vs veh, ZNF330 / RFU, GPN3 / Fold change vs veh, GPN3 / RFU, C9orf123 / Fold change vs veh, C9orf123 / RFU, N4BP2L2 / Fold change vs veh, N4BP2L2 / RFU, ARFIP1 / Fold change vs veh, ARFIP1 / RFU, FAM179B / Fold change vs veh, FAM179B / RFU, BCL10 / Fold change vs veh, BCL10 / RFU, UHRF1BP1L / Fold change vs veh, UHRF1BP1L / RFU, BET1 / Fold change vs veh, BET1 / RFU, CNOT2 / Fold change vs veh, CNOT2 / RFU, ZNF268 / Fold change vs veh, ZNF268 / Fold change vs veh, ZNF507 / RFU, DGCR2 / Fold change vs veh, DGCR2 / RFU, WDSUB1 / Fold change vs veh, WDSUB1 / Fold change vs veh, HSP90B1 /// MIR3652 / RFU, ADSS / Fold change vs veh, ADSS / RFU, GK / Fold change vs veh, GK / RFU, ZNF148 / Fold change vs veh, ZNF148 / RFU, TAF9 / Fold change vs veh, TAF9 / RFU, SLC1A5 / Fold change vs veh, SLC1A5 / RFU, SLMO2 / Fold change vs veh, SLMO2 / RFU, ABCC4 / Fold change vs veh, ABCC4 / RFU, LOC101060439 /// RAP1B / Fold change vs veh, LOC101060439 /// RAP1B / RFU, RFX7 / Fold change vs veh, RFX7 / RFU, GTPBP10 / Fold change vs veh, GTPBP10 / RFU, CNEP1R1 / Fold change vs veh, CNEP1R1 / RFU, BIVM-ERCC5 /// ERCC5 / Fold change vs veh, BIVM-ERCC5 /// ERCC5 / RFU, ILF3 / Fold change vs veh, ILF3 / RFU 11762660_at / Fold change /veh 11762660_at / RFU VCAN (11757783_s_at) / Fold change /veh VCAN (11757783_s_at) / RFU DDX43 (11728927_at) / Fold change /veh DDX43 (11728927_at) / RFU KRT8 (11758188_x_at) / Fold change /veh KRT8 (11758188_x_at) / RFU NKD1 (11759106_at) / Fold change /veh NKD1 (11759106_at) / RFU SRD5A1 (11742802_a_at) / Fold change /veh SRD5A1 (11742802_a_at) / RFU TPSAB1 /// TPSB2 (11721975_s_at) / Fold change /veh TPSAB1 /// TPSB2 (11721975_s_at) / RFU GSTM3 (11746129_a_at) / Fold change /veh GSTM3 (11746129_a_at) / RFU IL23R (11737362_x_at) / Fold change /veh IL23R (11737362_x_at) / RFU TMEM51 (11727254_a_at) / Fold change /veh TMEM51 (11727254_a_at) / RFU PIWIL2 (11732686_x_at) / Fold change /veh PIWIL2 (11732686_x_at) / RFU ORM1 (11744905_x_at) / Fold change /veh ORM1 (11744905_x_at) / RFU CCDC152 (11743942_at) / Fold change /veh CCDC152 (11743942_at) / RFU ECM1 (11717891_a_at) / Fold change /veh ECM1 (11717891_a_at) / RFU IL23R (11748794_a_at) / Fold change /veh IL23R (11748794_a_at) / RFU TNFAIP8L3 (11732012_x_at) / Fold change /veh TNFAIP8L3 (11732012_x_at) / RFU MBOAT4 (11741988_at) / Fold change /veh MBOAT4 (11741988_at) / RFU 11764193_at / Fold change /veh 11764193_at / RFU TMEM53 (11763286_at) / Fold change /veh TMEM53 (11763286_at) / RFU MAGEB2 (11727129_at) / Fold change /veh MAGEB2 (11727129_at) / RFU TMEM200A (11744735_a_at) / Fold change /veh TMEM200A (11744735_a_at) / RFU CCDC152 (11751479_a_at) / Fold change /veh CCDC152 (11751479_a_at) / RFU FAM211A (11726209_a_at) / Fold change /veh FAM211A (11726209_a_at) / RFU RGS16 (11746705_a_at) / Fold change /veh RGS16 (11746705_a_at) / RFU VCAN (11755009_s_at) / Fold change /veh VCAN (11755009_s_at) / RFU RHOB (11743442_s_at) / Fold change /veh RHOB (11743442_s_at) / RFU RGS16 (11720943_a_at) / Fold change /veh RGS16 (11720943_a_at) / RFU RGS16 (11720944_at) / Fold change /veh RGS16 (11720944_at) / RFU, VPS4B / Fold change vs veh, VPS4B / RFU, CREB1 / Fold change vs veh, CREB1 / RFU, DNAJC13 / Fold change vs veh, DNAJC13 / RFU, GNAQ / Fold change vs veh, GNAQ / RFU, CDK5R1 / Fold change vs veh, CDK5R1 / RFU, ZRANB3 / Fold change vs veh, ZRANB3 / RFU, CUL4A / Fold change vs veh, CUL4A / RFU, CCNY / Fold change vs veh, CCNY / RFU, UFL1 / Fold change vs veh, UFL1 / RFU, COG3 / Fold change vs veh, COG3 / RFU, DIAPH2 / Fold change vs veh, DIAPH2 / RFU, SKA2 / Fold change vs veh, SKA2 / RFU, AFF3 / Fold change vs veh, AFF3 / RFU, LMF1 / Fold change vs veh, LMF1 / RFU, IPO11 / Fold change vs veh, IPO11 / RFU, DFFB / Fold change vs veh, DFFB / RFU, FOXP1 / Fold change vs veh, FOXP1 / RFU, CARD8 / Fold change vs veh, CARD8 / RFU, STRN3 / Fold change vs veh, STRN3 / RFU, ADK / Fold change vs veh, ADK / RFU, RASSF2 / Fold change vs veh, RASSF2 / RFU, WIPF1 / Fold change vs veh, WIPF1 / RFU, LARP1B / Fold change vs veh, LARP1B / RFU, RASA1 / Fold change vs veh, RASA1 / RFU, RB1 / Fold change vs veh, RB1 / RFU, PPFIA1 / Fold change vs veh, PPFIA1 / RFU, MAT2A / Fold change vs veh, MAT2A / RFU, CCT5 / Fold change vs veh, CCT5 / RFU, WDR92 / Fold change vs veh, WDR92 / RFU, CUX1 / Fold change vs veh, CUX1 / RFU, TTC7A / Fold change vs veh, TTC7A / RFU, TMEM135 / Fold change vs veh, TMEM135 / RFU, DEPTOR / Fold change vs veh, DEPTOR / RFU, CPM / Fold change vs veh, CPM / RFU, DNAJB6 / Fold change vs veh, DNAJB6 / RFU, CACNA2D3 / Fold change vs veh, CACNA2D3 / RFU, DTX4 / Fold change vs veh, DTX4 / RFU, TFCP2 / Fold change vs veh, TFCP2 / RFU, GMCL1 /// GMCL1P1 / Fold change vs veh, GMCL1 /// GMCL1P1 / RFU, AEBP2 / Fold change vs veh, AEBP2 / RFU, SNHG1 /// SNORD22 /// SNORD25 /// SNORD26 /// SNORD27 /// SNORD28 /// SNORD29 /// SNORD31 / Fold change vs veh, SNHG1 /// SNORD22 /// SNORD25 /// SNORD26 /// SNORD27 /// SNORD28 /// SNORD29 /// SNORD31 / Fold change (Aza/veh), C12orf56 (ProbeSet 11735607_a_at) / Fold change (ACY-1035/veh), C12orf56 (ProbeSet 11735607_a_at) / Fold change (Aza/veh), FGFR1OP (ProbeSet 11751329_s_at) / Fold change (ACY-1035/veh), FGFR1OP (ProbeSet 11751329_s_at) / Fold change (Aza/veh), VPS36 (ProbeSet 11739960_a_at) / Fold change (ACY-1035/veh), VPS36 (ProbeSet 11739960_a_at) / RFU SYPL1 (11715823_x_at) / Fold change /veh SYPL1 (11715823_x_at) / RFU IGFBP7 (11715501_s_at) / Fold change /veh IGFBP7 (11715501_s_at) / RFU REEP3 (11722064_at) / Fold change /veh REEP3 (11722064_at) / RFU IGLL1 (11728026_x_at) / Fold change /veh IGLL1 (11728026_x_at): dose or concentration left out as unconfirmed
# Details: MV-4-11 cells, 48 hours
smiles,measurement,value
Nc1ccc(-c2cccs2)cc1NC(=O)c1ccc2c(c1)cc(C1CC1)n2CCN1CCOCC1 [ACY-1035],Fold change /veh DUSP10 (11751237_a_at),1.17
